For 26 compounds, IC50 results are on record in patent US9452986B2, “6-heteroaryloxy- or 6-aryloxy-quinoline-2-carboxamides and method of use” (AbbVie Inc., priority 2014, dated 2016).

Read-outs that look alike come from different tables or passages of the source.

This test deals with recombinant human Nav1.7 (Homo sapiens (Human), UniProt Q15858). The test is described as follows: FRET-based membrane potential assay, recombinant human sodium channel Nav1.7. The class given is cell-based. The note with it: read-out: FRET-Membrane Potential Nav1.7 IC50. The essentials: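 Channel activation used veratridine at its EC80, set by a dilution curve each experiment, together with Leiurus scorpion venom, added 3 min after compound. Membrane-potential ratio signals from FLIPR Tetra in HEPES-buffered HBSS were fitted to a four-parameter Hill equation for percent inhibition and IC50.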

Where [1] appears, read: HEK293 cells stably expressing recombinant human Nav1.7, veratridine + scorpion venom depolarization.

Chain of recombinant human Nav1.7 (Q15858 whole entry): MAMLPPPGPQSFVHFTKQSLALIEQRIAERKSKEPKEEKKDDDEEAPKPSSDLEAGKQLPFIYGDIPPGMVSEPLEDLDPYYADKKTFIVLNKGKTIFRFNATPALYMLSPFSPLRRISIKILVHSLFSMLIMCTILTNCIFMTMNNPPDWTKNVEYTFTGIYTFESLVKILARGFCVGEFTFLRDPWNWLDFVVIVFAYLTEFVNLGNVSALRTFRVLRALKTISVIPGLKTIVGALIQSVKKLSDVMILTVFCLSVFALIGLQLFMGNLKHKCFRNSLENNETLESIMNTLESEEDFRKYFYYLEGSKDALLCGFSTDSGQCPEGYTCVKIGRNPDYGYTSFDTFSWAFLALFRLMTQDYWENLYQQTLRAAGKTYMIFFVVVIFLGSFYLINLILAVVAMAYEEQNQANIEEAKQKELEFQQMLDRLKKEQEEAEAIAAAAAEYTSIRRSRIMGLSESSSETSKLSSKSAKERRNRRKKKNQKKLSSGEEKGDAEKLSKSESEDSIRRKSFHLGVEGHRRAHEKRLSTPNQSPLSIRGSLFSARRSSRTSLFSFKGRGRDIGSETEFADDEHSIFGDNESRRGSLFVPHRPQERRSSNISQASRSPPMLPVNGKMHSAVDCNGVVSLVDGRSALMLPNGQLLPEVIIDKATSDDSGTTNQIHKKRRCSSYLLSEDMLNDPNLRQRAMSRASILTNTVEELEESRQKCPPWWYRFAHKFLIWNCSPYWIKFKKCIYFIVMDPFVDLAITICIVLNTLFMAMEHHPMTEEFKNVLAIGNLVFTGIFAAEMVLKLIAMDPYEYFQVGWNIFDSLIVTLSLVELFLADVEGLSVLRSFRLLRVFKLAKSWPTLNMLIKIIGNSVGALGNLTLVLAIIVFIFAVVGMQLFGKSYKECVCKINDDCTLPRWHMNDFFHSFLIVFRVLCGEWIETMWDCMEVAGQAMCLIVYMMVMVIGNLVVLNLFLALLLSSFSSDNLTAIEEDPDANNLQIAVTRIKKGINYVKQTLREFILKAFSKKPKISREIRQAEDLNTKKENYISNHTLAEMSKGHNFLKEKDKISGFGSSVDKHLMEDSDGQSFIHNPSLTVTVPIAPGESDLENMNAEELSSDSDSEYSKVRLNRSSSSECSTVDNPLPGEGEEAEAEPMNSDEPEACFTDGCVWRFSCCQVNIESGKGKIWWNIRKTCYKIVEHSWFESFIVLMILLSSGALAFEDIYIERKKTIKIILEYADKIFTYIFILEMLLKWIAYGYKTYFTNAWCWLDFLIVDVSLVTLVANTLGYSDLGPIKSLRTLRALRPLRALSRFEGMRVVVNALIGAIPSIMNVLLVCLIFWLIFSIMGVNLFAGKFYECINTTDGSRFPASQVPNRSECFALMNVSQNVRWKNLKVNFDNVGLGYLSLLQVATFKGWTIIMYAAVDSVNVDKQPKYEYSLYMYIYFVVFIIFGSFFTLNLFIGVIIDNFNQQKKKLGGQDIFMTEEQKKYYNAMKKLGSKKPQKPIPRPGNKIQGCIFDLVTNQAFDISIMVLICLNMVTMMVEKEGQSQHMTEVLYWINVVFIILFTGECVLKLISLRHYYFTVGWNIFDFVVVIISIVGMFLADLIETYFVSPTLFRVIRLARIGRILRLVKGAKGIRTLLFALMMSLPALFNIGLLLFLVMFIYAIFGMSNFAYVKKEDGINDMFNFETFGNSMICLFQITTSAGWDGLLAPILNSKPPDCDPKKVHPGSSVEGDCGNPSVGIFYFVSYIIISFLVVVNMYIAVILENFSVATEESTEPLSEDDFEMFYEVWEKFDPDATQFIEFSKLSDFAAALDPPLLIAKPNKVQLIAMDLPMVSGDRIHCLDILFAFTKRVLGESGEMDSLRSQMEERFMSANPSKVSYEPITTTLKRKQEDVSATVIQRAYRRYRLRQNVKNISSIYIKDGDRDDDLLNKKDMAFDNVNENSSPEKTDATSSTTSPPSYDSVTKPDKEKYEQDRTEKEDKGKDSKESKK

For `C[C@@H]1CN(C(=O)c2ccc3cc(Oc4ccc(C(F)(F)F)cn4)ccc3n2)C[C@H]1O` (relative stereo) [Example 306, [trans-3-hydroxy-4-methylpyrrolidin-1-yl](6-{[5-(trifluoromethyl)pyridin-2-yl]oxy}quinolin-2-yl)methanone], under setting [1], the IC50 (usually the concentration needed to halve the response being measured) worked out at 14.8 µM.

As to `O=C(c1ccc2cc(Oc3ccc(C(F)(F)F)cn3)ccc2n1)N1CC(O)C(F)C1` (centres unmarked) [Example 292, (3-fluoro-4-hydroxypyrrolidin-1-yl)(6-{[5-(trifluoromethyl)pyridin-2-yl]oxy}quinolin-2-yl)methanone], the IC50 under setting [1] was 3.26 µM. `O=C1CCN(C(=O)c2ccc3cc(Oc4ccc(C(F)(F)F)cn4)ccc3n2)CC1` [Example 375, 1-[(6-{[5-(trifluoromethyl)pyridin-2-yl]oxy}quinolin-2-yl)carbonyl]piperidin-4-one]: the IC50 under setting [1] was 13.2 µM. On to `O=C(NC1CS(=O)(=O)C1)c1ccc2cc(Oc3ccc(C(F)(F)F)cn3)ccc2n1` [Example 504, N-(1,1-dioxidothietan-3-yl)-6-{[5-(trifluoromethyl)pyridin-2-yl]oxy}quinoline-2-carboxamide], for which the IC50 under setting [1] turned out to be 0.593 µM. Take `O=C(c1ccc2cc(Oc3ccc(C(F)(F)F)cn3)ccc2n1)N(C1CCOCC1)C1CCOCC1` [Example 376, N,N-di(tetrahydro-2H-pyran-4-yl)-6-{[5-(trifluoromethyl)pyridin-2-yl]oxy}quinoline-2-carboxamide]: the concentration for half-maximal inhibition (IC50) under setting [1] was found to be 3.06 µM. Take `O=C1CC(NC(=O)c2ccc3cc(Oc4ccc(C(F)F)cn4)ccc3n2)C1` [Example 592, 6-{[5-(difluoromethyl)pyridin-2-yl]oxy}-N-(3-oxocyclobutyl)quinoline-2-carboxamide]: the IC50 under setting [1] came to 3.44 µM.

Take `O=C(c1ccc2cc(Oc3ccc(C(F)(F)F)cn3)ccc2n1)N1CCC2(CC1)OCCO2` [Example 240, 1,4-dioxa-8-azaspiro[4.5]dec-8-yl(6-{[5-(trifluoromethyl)pyridin-2-yl]oxy}quinolin-2-yl)methanone]: the IC50 under setting [1] was 2.01 µM. Turning to `O=C(c1ccc2cc(Oc3ccc(C(F)(F)F)cn3)ccc2n1)N1CCN(C(=O)N2CCOCC2)CC1` [Example 299, morpholin-4-yl{4-[(6-{[5-(trifluoromethyl)pyridin-2-yl]oxy}quinolin-2-yl)carbonyl]piperazin-1-yl}methanone], the IC50 under setting [1] is over 20 µM. For the compound `O=C(c1ccc2cc(Oc3ccc(C(F)(F)F)cn3)ccc2n1)N1C[C@@H]2CN[C@@H]2C1` [Example 278, (1S,5S)-3,6-diazabicyclo[3.2.0]hept-3-yl(6-{[5-(trifluoromethyl)pyridin-2-yl]oxy}quinolin-2-yl)methanone], the concentration for half-maximal inhibition (IC50) turned out to be 3.72 µM.

Take `O=C(NC[C@@H]1CCCN1)c1ccc2cc(Oc3ccc(C(F)(F)F)cn3)ccc2n1` [Example 363, N-[(2S)-pyrrolidin-2-ylmethyl]-6-{[5-(trifluoromethyl)pyridin-2-yl]oxy}quinoline-2-carboxamide]: the IC50 under setting [1] worked out at 1.19 µM. In the case of `O=C(c1ccc2cc(Oc3ccc(C(F)(F)F)cn3)ccc2n1)N1CCC[C@@H](O)C1` [Example 581, [(3R)-3-hydroxypiperidin-1-yl](6-{[5-(trifluoromethyl)pyridin-2-yl]oxy}quinolin-2-yl)methanone], the IC50 was determined as 12.6 µM. In the case of `CC(O)c1ccc(Oc2ccc3nc(C(=O)N4CCNCC4)ccc3c2)cc1` (centres unmarked) [Example 275, {6-[4-(1-hydroxyethyl)phenoxy]quinolin-2-yl}(piperazin-1-yl)methanone], the IC50 under setting [1] is 11.4 µM.

For the compound `O=C(c1ccc2cc(Oc3ccc(C(F)(F)F)cn3)ccc2n1)N1CCNC(C(F)F)C1` (centres unmarked) [Example 594, [3-(difluoromethyl)piperazin-1-yl](6-{[5-(trifluoromethyl)pyridin-2-yl]oxy}quinolin-2-yl)methanone], the IC50 stood at 7.59 µM. In the case of `O=C(c1ccc2cc(Oc3ccc(C(F)(F)F)nc3)ccc2n1)N1CC[C@H](F)C1` [Example 550, [(3S)-3-fluoropyrrolidin-1-yl](6-{[6-(trifluoromethyl)pyridin-3-yl]oxy}quinolin-2-yl)methanone], under setting [1], the half-inhibitory concentration (IC50) turned out to be 10.7 µM. The same measure, in the same setting: to “{2-[(dimethylamino)methyl]morpholin-4-yl}(6-{[5-(trifluoromethyl)pyridin-2-yl]oxy}quinolin-2-yl)methanone [Example 374]” belongs 0.97 µM; to `O=C(c1ccc2cc(Oc3ccc(C(F)(F)F)cn3)ccc2n1)N1CCNCC(O)C1` (centres unmarked) [Example 407, (6-hydroxy-1,4-diazepan-1-yl)(6-{[5-(trifluoromethyl)pyridin-2-yl]oxy}quinolin-2-yl)methanone], 3.81 µM. For `O=C(c1ccc2cc(Oc3ccc(C(F)(F)F)cn3)ccc2n1)N1CCC2(C1)OCCO2` [Example 352, 1,4-dioxa-7-azaspiro[4.4]non-7-yl(6-{[5-(trifluoromethyl)pyridin-2-yl]oxy}quinolin-2-yl)methanone], the IC50 is 3.28 µM. As for `O=C(NC1CC(N2CCOCC2)C1)c1ccc2cc(Oc3ccc(C(F)(F)F)nc3)ccc2n1` (centres unmarked) [Example 574, N-[3-(morpholin-4-yl)cyclobutyl]-6-{[6-(trifluoromethyl)pyridin-3-yl]oxy}quinoline-2-carboxamide], the IC50 under setting [1] stood at 0.295 µM. In the case of `CC(C)(O)CNC(=O)c1ccc2cc(Oc3ccc(C(F)(F)F)nc3)ccc2n1` [Example 471, N-(2-hydroxy-2-methylpropyl)-6-{[6-(trifluoromethyl)pyridin-3-yl]oxy}quinoline-2-carboxamide], the IC50 under setting [1] was determined as 2.4 µM.

Take `O=C(c1ccc2cc(Oc3ccc(C(F)(F)F)cn3)ccc2n1)N1CCC2(CCC2O)CC1` (centres unmarked) [Example 341, (1-hydroxy-7-azaspiro[3.5]non-7-yl)(6-{[5-(trifluoromethyl)pyridin-2-yl]oxy}quinolin-2-yl)methanone]: under setting [1], the IC50 came to 4.23 µM. As to `CS(=O)(=O)NC(=O)c1ccc2cc(Oc3ccc(C#N)cc3)ccc2n1` [Example 115, 6-(4-cyanophenoxy)-N-(methylsulfonyl)quinoline-2-carboxamide], the IC50 under setting [1] was 11.2 µM.

For the compound `O=C(c1ccc2cc(Oc3ccc(C(F)(F)F)cn3)ccc2n1)N1CCN(C2CCCCC2)CC1` [Example 291, (4-cyclohexylpiperazin-1-yl)(6-{[5-(trifluoromethyl)pyridin-2-yl]oxy}quinolin-2-yl)methanone], the IC50 under setting [1] was found to be 13.7 µM. In the case of `O=C(NCC(O)C(F)(F)F)c1ccc2cc(Oc3ccc(C(F)(F)F)nc3)ccc2n1` (centres unmarked) [Example 551, N-(3,3,3-trifluoro-2-hydroxypropyl)-6-{[6-(trifluoromethyl)pyridin-3-yl]oxy}quinoline-2-carboxamide], the half-inhibitory concentration (IC50) stood at 2.77 µM.

Consider `O=C(c1ccc2cc(Oc3ccc(C(F)(F)F)cn3)ccc2n1)N1CCC(C(F)(F)F)C1` (centres unmarked) [Example 414, (6-{[5-(trifluoromethyl)pyridin-2-yl]oxy}quinolin-2-yl)[3-(trifluoromethyl)pyrrolidin-1-yl]methanone], for which, under setting [1], the IC50 amounted to 5.02 µM. Take `O=C(NCCC(=O)N1CCCC1)c1ccc2cc(Oc3ccc(C(F)(F)F)nc3)ccc2n1` [Example 516, N-[3-oxo-3-(pyrrolidin-1-yl)propyl]-6-{[6-(trifluoromethyl)pyridin-3-yl]oxy}quinoline-2-carboxamide]: the IC50 under setting [1] was 2 µM. Regarding `O=C(c1ccc2cc(Oc3cnc(C(F)(F)F)cn3)ccc2n1)N1CCNCC1` [Example 245, piperazin-1-yl(6-{[5-(trifluoromethyl)pyrazin-2-yl]oxy}quinolin-2-yl)methanone], the IC50 worked out at 4.63 µM.
